The record followed here is PubChem BioAssay (NCI).

Test systems include EKVX NSCLC; HOP-92 NSCLC; T-47D breast; SNB-19 CNS; M14 melanoma; DU-145 prostate; MCF7 breast; SK-MEL-28 melanoma; LOX IMVI melanoma; CAKI-1 renal.
What all share (assay): NCI tumour cell line growth inhibition, 48 h

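In this assay, cells in 96-well plates receive the compound at five concentrations for 48 hours. Endpoints are linearly interpolated between the surrounding concentrations. GI50 marks 50% less growth. TGI denotes the concentration required for complete inhibition of growth.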 A value given as a limit tells only on which side of the number the result lay.

In the case of `O=C(CNC(=O)c1cccc2ccccc12)Nc1ccccc1Oc1ccc(O)cc1`, the GI50 in the assay with EKVX NSCLC is 1.17 µM; with HOP-92 NSCLC, above 25 µM; with T-47D breast, 1.54 µM; with SNB-19 CNS, 1.42 µM; in the assay with M14 melanoma, 0.698 µM; in the assay on DU-145 prostate, 1.15 µM. The results for the GI50 with MCF7 breast, in the assay with SK-MEL-28 melanoma and in the assay with LOX IMVI melanoma were 0.847 µM, above 25 µM and 1.72 µM, respectively. For the same compound, the TGI in the assay on EKVX NSCLC, in the assay on HOP-92 NSCLC, with T-47D breast, with SNB-19 CNS, in the assay with M14 melanoma and in the assay on DU-145 prostate was above 25 µM throughout. Further, the TGI with MCF7 breast, in the assay on SK-MEL-28 melanoma and in the assay with LOX IMVI melanoma was above 25 µM throughout.

For `C/C=C/C(C/C=C(\C)CO[Si](C)(C)C(C)(C)C)O[Si](C)(C)C(C)(C)C` (stereo not drawn), the TGI with EKVX NSCLC, in the assay on T-47D breast, with SNB-19 CNS, with M14 melanoma, in the assay with DU-145 prostate and with MCF7 breast was above 100 µM each time. Also, the TGI in the assay on SK-MEL-28 melanoma, with LOX IMVI melanoma and with CAKI-1 renal was above 100 µM throughout.

In the case of `CC1(C)OC2OC(/C=C/[N+](=O)[O-])C3OC(C)(C)OC3C2O1` (stereo not drawn), the TGI was 41.9 µM with EKVX NSCLC; 19.6 µM in the assay with HOP-92 NSCLC; 33.5 µM with SNB-19 CNS; 27.3 µM in the assay with M14 melanoma; 32.9 µM in the assay on SK-MEL-28 melanoma; 22.1 µM with LOX IMVI melanoma. Also, in the assay with CAKI-1 renal, the TGI worked out at 14.3 µM.

For the compound `Cc1nn(-c2ccccc2)c2c1[C@@H](C)[C@H]1CC3(CC4(C)C[C@@H]3C1(C)c1c(C)nn(-c3ccccc3)c1N4C)N2C` (stereo partly drawn), the GI50 in the assay with HOP-92 NSCLC was 0.792 µM; with T-47D breast it was 2.64 µM; in the assay on SNB-19 CNS, above 100 µM; with DU-145 prostate it was above 100 µM; with MCF7 breast, 3.46 µM; with SK-MEL-28 melanoma it was 31.4 µM. Also, the TGI in the assay with HOP-92 NSCLC is 8.68 µM; with T-47D breast, above 100 µM; in the assay on SNB-19 CNS, above 100 µM; in the assay on DU-145 prostate, above 100 µM; in the assay with MCF7 breast it was above 100 µM; in the assay on SK-MEL-28 melanoma it was above 100 µM.

With `COc1ccc2c(c1)c(-c1nc(-c3cn(C)c4ncccc34)cs1)cn2CCCCN1CCCCC1`, the GI50 with EKVX NSCLC was 1.66 µM; in the assay on HOP-92 NSCLC, 1.38 µM; with DU-145 prostate, 1.74 µM; with SK-MEL-28 melanoma, 1.74 µM. Further, the TGI was determined as 3.18 µM in the assay on EKVX NSCLC, 2.76 µM with HOP-92 NSCLC, 3.12 µM in the assay with DU-145 prostate and 3.16 µM with SK-MEL-28 melanoma.

Take `COc1cnc2c(c1)C(=O)c1c-2n(CCCN2CCNCC2)c(=O)c2cc(F)ccc12`: the GI50 is 0.441 µM in the assay on EKVX NSCLC; 0.139 µM in the assay on HOP-92 NSCLC; 0.266 µM in the assay with T-47D breast; 0.13 µM in the assay on SNB-19 CNS; 0.366 µM in the assay with M14 melanoma; 0.0623 µM in the assay with DU-145 prostate. Moreover, the GI50 in the assay on MCF7 breast was 0.0345 µM; with SK-MEL-28 melanoma it was 1.52 µM; in the assay with LOX IMVI melanoma, 0.18 µM. The TGI in the assay with EKVX NSCLC came to 2.08 µM; in the assay on HOP-92 NSCLC it was 2.95 µM; in the assay with T-47D breast, 13.2 µM; in the assay with SNB-19 CNS, 1.24 µM; in the assay on M14 melanoma it was 1.88 µM; in the assay with DU-145 prostate, 1.15 µM. Besides, the TGI amounted to 1.41 µM in the assay on MCF7 breast, 3.03 µM in the assay with SK-MEL-28 melanoma and 1.32 µM in the assay with LOX IMVI melanoma.

Consider `CN(C)c1ccc(-c2cc(-c3cccc(NS(C)(=O)=O)c3)nc(N)c2C#N)cc1`, for which the GI50 is 0.133 µM in the assay on EKVX NSCLC; 0.951 µM in the assay on T-47D breast; 0.0526 µM with SNB-19 CNS; 0.0262 µM in the assay with M14 melanoma; 0.238 µM in the assay on MCF7 breast; 0.0508 µM in the assay on SK-MEL-28 melanoma. Besides, the GI50 was 0.0466 µM in the assay on LOX IMVI melanoma and 0.0348 µM with CAKI-1 renal. Further, the TGI with EKVX NSCLC was above 63.8 µM; in the assay with T-47D breast, 35.9 µM; in the assay on SNB-19 CNS it was above 48.9 µM; in the assay with M14 melanoma, 13.4 µM; with MCF7 breast it was 17.9 µM; with SK-MEL-28 melanoma it was 35.1 µM. In addition, the TGI worked out at 13.5 µM in the assay with LOX IMVI melanoma and 15.1 µM in the assay on CAKI-1 renal.

With `Cc1ccccc1C1N=C2Oc3ccccc3C=C2C(=O)N1` (stereo not drawn), the GI50 in the assay on T-47D breast was 1.58 µM; in the assay on SNB-19 CNS, above 42.9 µM; in the assay with M14 melanoma, 0.826 µM; in the assay with DU-145 prostate, 2.09 µM; in the assay on MCF7 breast, 0.793 µM; with SK-MEL-28 melanoma, 4.57 µM. The GI50 in the assay with LOX IMVI melanoma was 30.5 µM; in the assay on CAKI-1 renal, 5.46 µM. Further, the TGI with T-47D breast is above 100 µM; in the assay with SNB-19 CNS it was above 100 µM; with M14 melanoma it was 7.66 µM; in the assay on DU-145 prostate it was above 100 µM; in the assay with MCF7 breast, above 100 µM; with SK-MEL-28 melanoma, above 100 µM. The TGI in the assay with LOX IMVI melanoma and in the assay with CAKI-1 renal was above 100 µM each time.

On to `COc1cc(-c2nn(-c3cccc(NC(=O)NCCNC(=O)c4ccccc4)c3)cc2-c2ccncc2)ccc1Cl`, for which the GI50 is 3.76 µM in the assay on EKVX NSCLC; 2.63 µM with HOP-92 NSCLC; 1.25 µM in the assay on T-47D breast; 4.83 µM in the assay on SNB-19 CNS; 2.88 µM in the assay on M14 melanoma; 4.72 µM with DU-145 prostate. The GI50 with MCF7 breast was 2.22 µM; in the assay with SK-MEL-28 melanoma, 3.04 µM; in the assay with LOX IMVI melanoma, 2.46 µM. The TGI is above 100 µM in the assay on EKVX NSCLC; above 100 µM with HOP-92 NSCLC; 8.79 µM in the assay on T-47D breast; above 100 µM with SNB-19 CNS; above 100 µM with M14 melanoma; above 100 µM in the assay with DU-145 prostate. Besides, the TGI in the assay on MCF7 breast, with SK-MEL-28 melanoma and in the assay with LOX IMVI melanoma was above 100 µM each time.

For the compound `C=CN(C(=O)N1CCN(c2cc3c(cc2F)c(=O)c(C(=O)O)cn3C2CC2)CC1)c1nc(-c2ccc(C)cc2)cs1`, the GI50 in the assay on EKVX NSCLC is 3.61 µM; in the assay with HOP-92 NSCLC, 1.13 µM; in the assay with SNB-19 CNS it was 4.16 µM; with DU-145 prostate, 3.8 µM; in the assay with MCF7 breast, 2.88 µM; in the assay with SK-MEL-28 melanoma, 4.49 µM. In addition, the TGI in the assay with EKVX NSCLC is above 100 µM; with HOP-92 NSCLC, 4.39 µM; in the assay on SNB-19 CNS, above 100 µM; with DU-145 prostate, above 100 µM; in the assay with MCF7 breast, 11.5 µM; in the assay on SK-MEL-28 melanoma, above 100 µM.

As to `N/C(=N\O)c1cn(C2OC(CO)C(O)C2O)c2ncnc(N)c12` (stereo not drawn), the GI50 with T-47D breast is 0.108 µM; in the assay with SNB-19 CNS it was 0.301 µM; with M14 melanoma, 0.108 µM; with DU-145 prostate, 0.19 µM; in the assay on MCF7 breast, 0.056 µM; with SK-MEL-28 melanoma, 0.127 µM. Further, the GI50 with LOX IMVI melanoma was 0.153 µM; in the assay with CAKI-1 renal, 0.132 µM. For the same compound, the TGI is above 100 µM with SNB-19 CNS; 0.776 µM with M14 melanoma; 1.07 µM with MCF7 breast; 0.382 µM with SK-MEL-28 melanoma; 0.501 µM in the assay on LOX IMVI melanoma; 13.1 µM in the assay with CAKI-1 renal.
